The C3SDB collision cross section collection

Tests used:
[1] = instrument: DT, single field, calibrated with Agilent tune mix (Agilent)
[2] = [M+Na]+; instrument: DT; single field, calibrated with ESI Low Concentration Tuning Mix (Agilent)
[3] = [M+H]+; instrument: TW; calibrated with polyalanine and drug standards

collision cross section (N2) ([1]; [M+H]+)	collision cross section (N2) ([1]; [M-H]-)	SMILES	also measured
169.7 Å²	–	Cc1ncc(C[n+]2csc(CCOP(=O)(O)O)c2C)c(N)n1 [Thiamine monophosphate]	–
–	126.93 Å²	CCC(=O)NCC(=O)O [Propionylglycine]	–
–	128.54 Å²	CCCCCC(=O)O [Caproic acid]	–
144.7 Å²	141.49 Å²	CC(C)(CO)[C@@H](O)C(=O)NCCCO [Pantothenol]	–
–	126.74 Å²	NCCC[C@@H](N)C(=O)O [D-Ornithine]	–
–	122.67 Å²	O=C(O)c1cc(O)ccc1O [Gentisic acid]	–
299.4 Å²	298.79 Å²	CCCCCCCC/C=C\CCCCCCCC(=O)SCCNC(=O)CCNC(=O)[C@H](O)C(C)(C)COP(=O)(O)OP(=O)(O)OC[C@H]1O[C@@H](n2cnc3c(N)ncnc32)[C@H](O)[C@@H]1OP(=O)(O)O [Oleoyl-CoA]	–
–	170.78 Å²	CCCCCCCCCCCCCCCCC(=O)O [Heptadecanoic acid]	–
–	126.65 Å²	O=C(O)Cc1ccc(O)cc1 [p-Hydroxyphenylacetic acid]	–
–	134.06 Å²	Cn1c(=O)[nH]c2[nH]c(=O)n(C)c2c1=O [1,7-Dimethyluric acid]	–
178.9 Å²	–	Nc1nc(=O)c2ncn([C@@H]3O[C@H](COP(=O)(O)O)[C@@H](O)[C@H]3O)c2[nH]1 [Guanosine 5'-monophosphate]	–
–	124.48 Å²	Cn1c(=O)[nH]c(=O)c2[nH]cnc21 [3-Methylxanthine]	–
182.5 Å²	–	Nc1ncnc2c1ncn2[C@@H]1O[C@H](COP(=O)(O)O)[C@@H](OP(=O)(O)O)[C@H]1O [Adenosine 3',5'-diphosphate]	collision cross section (N2) ([1]; [M-H2O-H]-): 179.49 Å²
164.8 Å²	–	O=C(O)c1ccc[n+]([C@@H]2O[C@H](COP(=O)(O)O)[C@@H](O)[C@H]2O)c1 [Nicotinate D-ribonucleotide]	–
–	–	Cn1c[n+]([C@@H]2O[C@H](CO)[C@@H](O)[C@H]2O)c2[nH]c(N)nc(=O)c21 [7-Methylguanosine]	collision cross section (N2) ([1]; [M]+): 166.5 Å²
–	–	CC(C)CCC[C@@H](C)[C@H]1CC[C@H]2C3=CC[C@H]4C[C@@H](O)CC[C@]4(C)[C@H]3CC[C@]12C [Lathosterol]	collision cross section (N2) ([1]; [M+H-H2O]+): 204.5 Å²
193.6 Å²	196.42 Å²	Nc1nc(=O)c2c([nH]1)NCC(CNc1ccc(C(=O)N[C@@H](CCC(=O)O)C(=O)O)cc1)=N2 [7,8-Dihydrofolate]	–

collision cross section (N2) ([1]; [M+H]+)	collision cross section (N2) ([1]; [M-H]-)	SMILES	also measured
–	138.82 Å²	O=C(O)C(=O)Cc1c[nH]c2ccccc12 [Indole-3-pyruvic acid]	–
140.8 Å²	146.28 Å²	COc1ccc(/C=C/C(=O)O)cc1 [4-Methoxycinnamic acid]	–
130.6 Å²	–	O=C1CC[C@@H](C(=O)O)N1 [L-Pyroglutamic acid]	–
136.2 Å²	–	COc1cc(C(=O)O)ccc1O [Vanillic acid]	–
158.7 Å²	162.82 Å²	NC(=O)CC[C@H](NC(=O)Cc1ccccc1)C(=O)O [Alpha-N-Phenylacetyl-L-glutamine]	–
–	146.22 Å²	NCc1[nH]cc(CCC(=O)O)c1CC(=O)O [Porphobilinogen]	collision cross section (N2) ([1]; [M+Na]+): 148.1 Å²
247.3 Å²	–	Cc1cc2nc3c(=O)[nH]c(=O)nc-3n(C[C@H](O)[C@H](O)[C@H](O)COP(=O)(O)OP(=O)(O)OC[C@H]3O[C@@H](n4cnc5c(N)ncnc54)[C@H](O)[C@@H]3O)c2cc1C [Flavin adenine dinucleotide]	–
–	156.42 Å²	CC(=O)N[C@H]1C(OP(=O)(O)O)O[C@H](CO)[C@@H](O)[C@@H]1O (stereo partly drawn) [N-Acetylglucosamine 1-phosphate]	collision cross section (N2) ([1]; [M+Na]+): 166.6 Å²
260.5 Å²	252.39 Å²	CC(C)(COP(=O)(O)OP(=O)(O)OC[C@H]1O[C@@H](n2cnc3c(N)ncnc32)[C@H](O)[C@@H]1OP(=O)(O)O)[C@@H](O)C(=O)NCCC(=O)NCCSC(=O)CCCC(=O)O [Glutaryl-CoA]	–
187.7 Å²	–	CC(O)C(=O)SC[C@H](NC(=O)CC[C@H](N)C(=O)O)C(=O)NCC(=O)O (stereo partly drawn) [S-Lactoylglutathione]	collision cross section (N2) ([1]; [M+Na-2H]-): 176.59 Å²
–	–	OC[C@H]1O[C@@H](Oc2ccc(O)cc2)[C@H](O)[C@@H](O)[C@@H]1O [Arbutin]	collision cross section (N2) ([1]; [M+Na-2H]-): 159.52 Å²; collision cross section (N2) ([1]; [M+Na]+): 166.6 Å²
–	149.44 Å²	CC(=O)N[C@@H](Cc1ccc(O)cc1)C(=O)O [N-Acetyl-L-tyrosine]	collision cross section (N2) ([1]; [M+Na]+): 154.5 Å²
–	200.7 Å²	C[C@H](CCC(=O)O)[C@H]1CC[C@H]2[C@@H]3CC[C@@H]4C[C@H](O)CC[C@]4(C)[C@H]3C[C@H](O)[C@]12C [Deoxycholic acid]	–
–	–	NC(=O)CCCCC1CCSS1 (stereo not drawn) [LIPOAMIDE]	collision cross section (N2) [2]: 150.4 Å²; collision cross section (N2) [3]: 139.3 Å²
–	136.11 Å²	O=C(O)CCc1cccc(O)c1 [3-(3-Hydroxyphenyl)propanoic acid]	–
–	195.36 Å²	Nc1nc(=O)c2c([nH]1)NCC(CNc1ccc(C(=O)N[C@@H](CCC(=O)O)C(=O)O)cc1)N2 (stereo partly drawn) [Tetrahydrofolate]	–

SMILES	collision cross section (N2) ([1]; [M+H]+)	collision cross section (N2) ([1]; [M-H]-)	also measured
O=C(O)CCCCCCCCCCCCCCCO [16-Hydroxypalmitic acid]	–	168.99 Å²	collision cross section (N2) ([1]; [M+Na]+): 178.2 Å²
